Measurements taken from patent US20140081017A1, “Histone Deacetylase Inhibitors for Enhancing Activity of Antifungal Agents” (METHYLGENE INC., priority 2012, published 2014).
Converted amounts (≈) assume the structure as drawn. Read-outs that look alike come from different tables or passages of the source.

How the values were obtained:
[1] = test system: C. glabrata; experiment: Checkerboard FIC assay in combination with fluconazole (MIC alone and in combination, FICI); format: cell-based, Candida glabrata; details: for FICI of combination resulting in fluconazole MIC of: 2 ug/mL / FICI of combination resulting in fluconazole MIC of: 4 ug/mL / FICI of combination resulting in fluconazole MIC of: 8 ug/mL: FICI calculated using a fluconazole MIC of 16 μg/mL; for FICI of combination resulting in fluconazole MIC of: 2 ug/mL (value in parenthesis) / FICI of combination resulting in fluconazole MIC of: 4 ug/mL (value in parenthesis) / FICI of combination resulting in fluconazole MIC of: 8 ug/mL (value in parenthesis): FICI using a fluconazole MIC of 128 μg/mL; for MIC: Nakaseomyces glabratus; for Multiple of compound MIC to synergize fluconazole MIC to 2 ug/mL / Multiple of compound MIC to synergize fluconazole MIC to 4 ug/mL / Multiple of compound MIC to synergize fluconazole MIC to 8 ug/mL: concentration in combination as multiple of the compound's MIC alone; for Multiple of compound MIC to synergize fluconazole MIC to 2 ug/mL: fluconazole MIC 2 ug/mL; for Multiple of compound MIC to synergize fluconazole MIC to 4 ug/mL: fluconazole MIC 4 ug/mL; for Multiple of compound MIC to synergize fluconazole MIC to 8 ug/mL: fluconazole MIC 8 ug/mL; for Concentration of Methylgene compound to synergize fluconazole MIC to 2 ug/mL / Concentration of Methylgene compound to synergize fluconazole MIC to 4 ug/mL / Concentration of Methylgene compound to synergize fluconazole MIC to 8 ug/mL: in combination with fluconazole; for Concentration of Methylgene compound to synergize fluconazole MIC to 2 ug/mL: fluconazole MIC lowered to 2 ug/mL; for Concentration of Methylgene compound to synergize fluconazole MIC to 4 ug/mL: fluconazole MIC lowered to 4 ug/mL; for Concentration of Methylgene compound to synergize fluconazole MIC to 8 ug/mL: fluconazole MIC lowered to 8 ug/mL
How it was run: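 C. glabrata was tested by CLSI broth microdilution checkerboard, crossing 2-fold dilutions of compound with 2-fold dilutions of fluconazole. The medium was RPMI with 0.165 M MOPS at pH 7.0, inoculated from a 0.5 McFarland suspension diluted 1:100, then incubated about 48 h at 35 °C. Single-agent MICs gave the FIC and FICI values.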

[2] = test system: Candida glabrata; experiment: Minimal Inhibitory Concentration (MIC) assay, broth microdilution per CLSI; format: cell-based; details: Nakaseomyces glabratus, read-out: Minimum Inhibitory Concentrations against Yeast Isolates, Candida glabrata;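 also: two read times 24 hr and 48 hr of incubation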
How it was run: (§1)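 Read-out is visual: MIC is the lowest compound concentration preventing visible growth after approximately 24-48 hr at 35° C. Testing used CLSI microdilution in MOPS-buffered RPMI (pH 7.0) with serial 1:1 compound dilutions made in DMSO.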

[3] = test system: Candida albicans; experiment: as above; format: cell-based; details: Candida albicans, read-out: Minimum Inhibitory Concentrations against Yeast Isolates, Candida albicans;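 also: two read times 24 hr and 48 hr of incubation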
How it was run: as §1

[4] = test system: Candida parapsilosis; experiment: as above; format: cell-based; details: Lodderomyces parapsilosis, read-out: Minimum Inhibitory Concentrations against Yeast Isolates, Candida parapsilosis;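 also: two read times 24 hr and 48 hr of incubation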
How it was run: as §1

[5] = MIC of the example compound alone against C. glabrata in the checkerboard assay, approximately 48 hr, read-out: Methylgene MIC
[6] = test compound alone, C. glabrata, approx. 48 hr at 35° C., read-out: Compound MIC
[7] = 24 hr reading (first value of cell 24 hr/48 hr)
[8] = 48 hr reading (second value of cell 24 hr/48 hr)

| SMILES | FICI of combination resulting in fluconazole MIC of: 2 ug/mL ([1]; C. glabrata) | FICI of combination resulting in fluconazole MIC of: 4 ug/mL ([1]; C. glabrata) | FICI of combination resulting in fluconazole MIC of: 8 ug/mL ([1]; C. glabrata) | FICI of combination resulting in fluconazole MIC of: 2 ug/mL (value in parenthesis) ([1]; C. glabrata) | FICI of combination resulting in fluconazole MIC of: 4 ug/mL (value in parenthesis) ([1]; C. glabrata) | FICI of combination resulting in fluconazole MIC of: 8 ug/mL (value in parenthesis) ([1]; C. glabrata) | MIC [1, 5] [µg/mL] | MIC [1, 6] [µg/mL] | Multiple of compound MIC to synergize fluconazole MIC to 2 ug/mL [1] | Multiple of compound MIC to synergize fluconazole MIC to 4 ug/mL [1] | Multiple of compound MIC to synergize fluconazole MIC to 8 ug/mL [1] | Concentration of Methylgene compound to synergize fluconazole MIC to 2 ug/mL ([1]; C. glabrata) [µg/mL] | Concentration of Methylgene compound to synergize fluconazole MIC to 4 ug/mL ([1]; C. glabrata) [µg/mL] | Concentration of Methylgene compound to synergize fluconazole MIC to 8 ug/mL ([1]; C. glabrata) [µg/mL] | MIC [2, 7] [µg/mL] | MIC [2, 8] [µg/mL] | MIC [3, 7] [µg/mL] | MIC [3, 8] [µg/mL] | MIC [4, 7] [µg/mL] | MIC [4, 8] [µg/mL] |
| --- | --- | --- | --- | --- | --- | --- | --- | --- | --- | --- | --- | --- | --- | --- | --- | --- | --- | --- | --- | --- |
| O=C(Cc1cnc(CCCCc2ccccc2)s1)NO [Example 2, N-hydroxy-2-(2-(4-phenylbutyl)thiazol-5-yl)acetamide] | 0.375 | 0.500 | 0.625 | 0.266 | 0.281 | 0.188 | 16 | 16 | (¼x) | (¼x) | (⅛x) | 4 | 4 | 2 | > 64 | > 64 | 64 (≈ 220 µM) | 64 (≈ 220 µM) | 64 (≈ 220 µM) | 64 (≈ 220 µM) |
| O=C(Cc1ccc(CCCCc2ccc(C(=O)N3CCN(C/C=C/c4ccccc4)CC3)cc2)cc1)NO [Example 20, (E)-2-(4-(4-(4-(4-cinnamylpiperazine-1-carbonyl)phenyl)butyl)phenyl)-N-hydroxyacetamide] | 0.563 | 0.375 | 0.500 | 0.516 | 0.281 | 0.313 | 1 | 1 | (½x) | (¼x) | (¼x) | 0.5 | 0.25 | 0.25 | 2 (≈ 3.91 µM) | 2 (≈ 3.91 µM) | > 8 | > 8 | > 8 | > 8 |
| COCCOCCOCC(=O)Nc1ccc(CCCCc2ccc(CC(=O)NO)cc2)cc1 [Example 35, N-hydroxy-2-(4-(4-(4-(2-(2-(2-methoxyethoxy)ethoxy)acetamido)phenyl)butyl)phenyl)acetamide] | 0.375 | 0.500 | 0.625 | 0.266 | 0.281 | 0.188 | 4 | 4 | (¼x) | (¼x) | (⅛x) | 1 | 1 | 0.5 | 64 (≈ 140 µM) | > 64 | 64 (≈ 140 µM) | 64 (≈ 140 µM) | 64 (≈ 140 µM) | 64 (≈ 140 µM) |
| CC(C(=O)NO)c1ccc(CCCCc2ccccc2)cc1 (stereo not drawn) [Example 55, N-hydroxy-2-(4-(4-phenylbutyl)phenyl)propanamide] | 0.303 | 0.365 | 0.370 | 0.256 | 0.271 | 0.183 | 0.5 | 0.5 | (¼x) | (¼x) | (⅛x) | 0.12 | 0.12 | 0.06 | 0.25 (≈ 0.841 µM) | 0.5 (≈ 1.68 µM) | 2 (≈ 6.72 µM) | 4 (≈ 13.4 µM) | 0.5 (≈ 1.68 µM) | 1 (≈ 3.36 µM) |

Results, then the compound that gave them:

| FICI of combination resulting in fluconazole MIC of: 2 ug/mL ([1]; C. glabrata) | FICI of combination resulting in fluconazole MIC of: 4 ug/mL ([1]; C. glabrata) | FICI of combination resulting in fluconazole MIC of: 8 ug/mL ([1]; C. glabrata) | FICI of combination resulting in fluconazole MIC of: 2 ug/mL (value in parenthesis) ([1]; C. glabrata) | FICI of combination resulting in fluconazole MIC of: 4 ug/mL (value in parenthesis) ([1]; C. glabrata) | FICI of combination resulting in fluconazole MIC of: 8 ug/mL (value in parenthesis) ([1]; C. glabrata) | MIC [1, 5] [µg/mL] | MIC [1, 6] [µg/mL] | Multiple of compound MIC to synergize fluconazole MIC to 2 ug/mL [1] | Multiple of compound MIC to synergize fluconazole MIC to 4 ug/mL [1] | Multiple of compound MIC to synergize fluconazole MIC to 8 ug/mL [1] | Concentration of Methylgene compound to synergize fluconazole MIC to 2 ug/mL ([1]; C. glabrata) [µg/mL] | Concentration of Methylgene compound to synergize fluconazole MIC to 4 ug/mL ([1]; C. glabrata) [µg/mL] | Concentration of Methylgene compound to synergize fluconazole MIC to 8 ug/mL ([1]; C. glabrata) [µg/mL] | MIC [2, 7] [µg/mL] | MIC [2, 8] [µg/mL] | MIC [3, 7] [µg/mL] | MIC [3, 8] [µg/mL] | MIC [4, 7] [µg/mL] | MIC [4, 8] [µg/mL] | SMILES |
| --- | --- | --- | --- | --- | --- | --- | --- | --- | --- | --- | --- | --- | --- | --- | --- | --- | --- | --- | --- | --- |
| 0.313 | 0.250 | 0.313 | 0.266 | 0.156 | 0.125 | > 16 | > 16 |  |  |  | 8 | 4 | 2 | 16 (≈ 27.9 µM) | 64 (≈ 112 µM) | > 64 | > 64 | > 64 | > 64 | O=C(Cc1ccc(CCCCc2ccc(C(=O)N3CCOCCOCCOCCOCCOCC3)cc2)cc1)NO [Example 24, 2-(4-(4-(4-(1,4,7,10,13-pentaoxa-16-azacyclooctadecane-16-carbonyl)phenyl)butyl)phenyl)-N-hydroxyacetamide] |
| 0.313 | 0.375 | 0.375 | 0.266 | 0.281 | 0.188 | > 16 | > 16 |  |  |  | 8 | 8 | 4 | 16 (≈ 53.4 µM) | 64 (≈ 214 µM) | > 64 | > 64 | > 64 | > 64 | O=C(Cc1ccc(C(O)CCCc2ccccc2)cc1)NO (stereo not drawn) [Example 59, N-hydroxy-2-(4-(1-hydroxy-4-phenylbutyl)phenyl)acetamide] |
